Consider 15 molecules from PubChem BioAssay (NCI).

As a reminder, the TGI is the concentration at which net growth stops. A higher TGI goes with less potent growth arrest. In general, GI50 refers to the concentration at which growth is held to half of that of the control.

Holding throughout (experiment): DTP human tumour cell line panel, 48 h
Assay [1] concerns SK-MEL-5 melanoma.
In assay [2] the test system is EKVX NSCLC.
In assay [3] the test system is RXF 393 renal.
Assay [4] deals with TK-10 renal.
Assay [5] has as its system UO-31 renal.
Assay [6] has as its system MOLT-4 leukemia.
Assay [7] relates to COLO 205 colon.
Assay [8] has as its system UACC-62 melanoma.
Assay [9] has as its system M14 melanoma.

SMILES strings stand for the structures. “And” between values parts separate entries of the source, which are not always exact repeats. Identical values can stand only once.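 Exposure lasted 48 hours, with cells grown in 96-well plates and compounds tested at five concentrations. The concentration for 50% growth inhibition is given as GI50. The concentration for full growth arrest is given as TGI.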

`c1ccc(C2OC3(CCC[C@H]4C[C@H]43)O[C@H]2c2ccccc2)cc1` (some centres undefined): the concentration for total growth inhibition (TGI) is 65.7 µM in assay [1]; above 100 µM in assay [2]; 79 µM in assay [3]; above 100 µM in assay [4]; above 100 µM in [5]; 63.9 µM in [6]. In addition, the TGI is 91.7 µM in [7], above 100 µM in assay [8] and above 100 µM in assay [9].

Take `O=C1N2Cc3c4ccc5c3CN3C(=O)N6Cc7c(ccc(c7CN1C6(c1ccccc1)C23c1ccccc1)OCCOCCNCCOCCO4)OCCOCCNCCOCCO5` (centres undefined): the TGI was above 100 µM in assay [1]; above 100 µM in [2]; above 100 µM in [3]; 56 µM in [4]; above 100 µM in assay [5]; above 100 µM in assay [6]. Besides, the TGI in assay [8] was above 100 µM; in assay [9] it was 57.8 µM.

For `O=C1C(c2ccc(Br)cc2)=[N+]([O-])c2ccccc21`, the TGI in assay [1] turned out to be 21.6 µM; in [2], 29.5 µM; in assay [3], 31.4 µM; in assay [4], 29.7 µM; in assay [5] it was 38.7 µM; in assay [6] it was 26.6 µM. Besides, the TGI in [7] was found to be 32.2 µM; in assay [8], 29.7 µM; in assay [9], 29.8 µM.

As for `O=C(O)[C@H](NS(=O)(=O)c1ccc(F)cc1)c1ccccc1`, the TGI in assay [1], in assay [2], in [3], in assay [4], in assay [5] and in assay [6] was above 100 µM throughout. For the same molecule, the TGI in assay [7], in assay [8] and in [9] was above 100 µM each time.

As for `O=[N+]([O-])C=C(c1ccc(Cl)cc1)c1ccc(Cl)cc1`, the TGI came to 32.5 µM in assay [2]; 33.5 µM in assay [3]; 33.5 µM in assay [4]; 27.2 µM in [5]; 56.9 µM in assay [6]; 12.2 µM in [7]. In addition, the TGI in [9] was 30.5 µM.

As for `CN(C)CCNC(=O)c1cccc2cc3c(Cl)cccc3nc12`, the TGI is 9.58 µM in assay [2]; 3.62 µM in assay [3]; 7.66 µM in assay [4]; above 28.7 µM in assay [5]; 0.556 µM in assay [6]; above 29.3 µM in assay [7]. In addition, the TGI in assay [8] is 3.82 µM.

For the molecule `CCOC(=O)C(=O)CC1=Nc2ccccc2SC(c2cccc(C)c2)C1` (centres undefined), the TGI in [1] was 36.2 µM; in assay [2], 40.4 µM; in assay [5], 28.7 µM; in assay [6] it was 47.9 µM; in [8], 31.9 µM; in assay [9], 35.3 µM.

On to `COc1ccc2c(c1OC)CO[C@@H]2[C@H]1c2c(cc3c(c2OC)OCO3)CCN1S(=O)(=O)c1cn(C)cn1`, for which the GI50 in assay [1] was 444 nM; in assay [2], 13.1 µM; in assay [4], above 100000 nM; in assay [5], 5.2 µM; in assay [6], 3840 nM; in assay [7] it was 1720 nM. The GI50 in [8] was 803 nM; in assay [9], 513 nM. In addition, the TGI in assay [1] was 6.24 µM; in assay [2], above 100 µM; in assay [4], above 100 µM; in assay [5], above 100 µM; in [6], above 100 µM; in [7] it was 11.6 µM. Also, the TGI in assay [8] and in assay [9] was above 100 µM each time.

As to `CC1/C(=N\O)CC(c2ccccc2)N(C)C1c1ccccc1` (centres undefined), the total growth inhibition concentration (TGI) in assay [1], in assay [2], in [3], in assay [4], in assay [5] and in assay [6] was above 100 µM each time. Further, the TGI in assay [7], in assay [8] and in assay [9] was above 100 µM throughout.

On to `CC1=C(C(=O)Nc2ccccc2)C(c2cccc3ccccc23)C(C(=O)Nc2ccccc2)=C(C)N1`, for which the TGI turned out to be 33.4 µM in assay [1]; 37.6 µM in [2]; 29.2 µM in [3]; 96.7 µM in assay [4]; 52.8 µM in assay [5]; 43.8 µM in assay [6]. The TGI worked out at 26.6 µM in assay [7], 27.8 µM in assay [8] and 32.5 µM in [9].

For `Cc1cc2c(C)n(Cc3ccccc3Cl)nc2c(C(=O)O)c1C`, the TGI in [2], in assay [3], in assay [4], in [5], in assay [6] and in assay [8] was above 100 µM throughout.

Regarding `CCCCCCCCCCCCCCCCCCn1cc[n+](C)c1`, the GI50 in [3] is 451 nM; in assay [4], 470 nM and 260 nM; in assay [5] it was 1.03 µM; in assay [6] it was 189 nM and 650 nM; in assay [7], 350 nM; in assay [8], 1040 nM. For the same molecule, the TGI in assay [3] was 1.54 µM; in assay [4] it was 1.97 µM and 1.44 µM; in [5], 2.41 µM; in assay [7], 1.28 µM; in [8], 2.3 µM.

On to `O=C(CC1OC(O)C(Cl)=C1Cl)c1cccnc1` (centres undefined), for which the concentration for total growth inhibition (TGI) in assay [1], in assay [2], in assay [3], in [4], in assay [5] and in assay [6] was above 100 µM throughout. The TGI in assay [7], in assay [8] and in [9] was above 100 µM throughout.

Regarding `CN(C)C(=N/O)/C(=N\O)N(C)C`, the TGI in assay [2], in [3], in assay [4], in [5], in [6] and in assay [8] was above 100 µM each time. Moreover, the TGI in [9] was above 100 µM.

Regarding `O=C1C=CC=C/C1=C1/SC(c2ccccc2)=C(O)N1c1ccccc1`, the TGI in assay [1], in assay [2], in assay [3], in [4], in [5] and in assay [7] was above 100 µM each time. In addition, the TGI in [8] was above 100 µM.
